Laboratory results from ChEMBL document CHEMBL4425143, “Design and synthesis of new homo and hetero bis-piperazinyl-1-propanone derivatives as 5-HT7R selective ligands over 5-HT1AR” (Bioorg Med Chem Lett, 2016).

Tests used:
[1] = molecular target: T1, 5-hydroxytryptamine receptor 1A (Homo sapiens, UniProt P08908); test: Displacement of [3H]-8-OH-DPAT from human 5-HT1A receptor expressed in CHOK1 cell membranes after 30 mins by liquid scintillation spectrometry
T1 sequence (P08908 whole entry): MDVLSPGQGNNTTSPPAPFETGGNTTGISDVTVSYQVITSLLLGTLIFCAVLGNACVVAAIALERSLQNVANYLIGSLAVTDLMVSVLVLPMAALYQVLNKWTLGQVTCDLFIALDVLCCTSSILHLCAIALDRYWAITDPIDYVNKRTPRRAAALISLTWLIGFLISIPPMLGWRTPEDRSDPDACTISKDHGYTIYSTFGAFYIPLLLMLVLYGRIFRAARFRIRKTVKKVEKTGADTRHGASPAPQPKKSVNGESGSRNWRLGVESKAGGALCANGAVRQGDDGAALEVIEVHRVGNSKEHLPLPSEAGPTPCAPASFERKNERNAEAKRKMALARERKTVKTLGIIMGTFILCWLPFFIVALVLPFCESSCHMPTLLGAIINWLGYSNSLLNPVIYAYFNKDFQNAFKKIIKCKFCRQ

[2] = molecular target: T2, 5-hydroxytryptamine receptor 7 (Homo sapiens, UniProt P34969); test: Displacement of [3H]-5-HT from human 5-HT7 receptor expressed in CHOK1 cell membranes after 30 mins by liquid scintillation spectrometry
[3] = molecular target: T3, 5-hydroxytryptamine receptor 1A (Homo sapiens) (UniProt P08908); test: Displacement of [3H]-8-OH-DPAT from human 5-HT1A receptor expressed in CHOK1 cell membranes at 10^-5M after 30 mins by liquid scintillation spectrometry
T3 sequence (whole entry): T1 sequence (P08908 whole entry)

[4] = molecular target: T2, 5-hydroxytryptamine receptor 7; test: Displacement of [3H]-5-HT from human 5-HT7 receptor expressed in CHOK1 cell membranes at 10^-5M after 30 mins by liquid scintillation spectrometry
[5] = Dissociation constant, pKa of the compound at pH 7.4; format: physicochemical

T2 sequence (P34969 whole entry): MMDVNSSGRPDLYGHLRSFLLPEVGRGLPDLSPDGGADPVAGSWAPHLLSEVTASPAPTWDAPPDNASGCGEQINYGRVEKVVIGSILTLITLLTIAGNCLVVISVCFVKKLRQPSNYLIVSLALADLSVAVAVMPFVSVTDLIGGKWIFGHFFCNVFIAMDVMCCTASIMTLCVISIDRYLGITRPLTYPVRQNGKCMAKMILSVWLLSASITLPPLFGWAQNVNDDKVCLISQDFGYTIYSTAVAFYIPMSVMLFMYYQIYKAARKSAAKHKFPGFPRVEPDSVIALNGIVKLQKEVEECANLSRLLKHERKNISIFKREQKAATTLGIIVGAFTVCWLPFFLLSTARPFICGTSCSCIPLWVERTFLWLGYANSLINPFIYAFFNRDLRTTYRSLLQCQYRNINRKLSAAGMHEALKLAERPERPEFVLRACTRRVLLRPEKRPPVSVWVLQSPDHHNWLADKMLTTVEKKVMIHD

Structure (SMILES)	Ki [1]	Ki [2]	inhibition [3]	inhibition [4]	pKa [5]
O=C(CCNCc1ccccc1)NCc1ccccc1	3750 nM	176 nM			
O=C(CCN1CCN(Cc2ccccc2)CC1)NCc1ccccc1	0.34 nM	4.34 nM			
CCOc1ccccc1N1CCN(CCC(=O)N2CCN(c3ccccc3)CC2)CC1	81.8 nM	80.3 nM			
O=C(CCN1CCN(Cc2ccccc2)CC1)N1CCN(c2ncccn2)CC1		23.5 nM	< 50%		
O=C(CCN1CCN(Cc2ccccc2)CC1)N1CCN(c2ccccc2Cl)CC1		50.2 nM	< 50%		
O=C(CCN1CCN(c2cccc(Cl)c2)CC1)N1CCN(c2ccccc2)CC1	33.5 nM	32.7 nM			
O=C(CCNCc1ccccc1)N1CCN(c2ccccc2)CC1	938 nM			< 50%	
O=C(CCN1CCN(Cc2ccccc2)CC1)N1CCN(c2ccc(Cl)cc2)CC1		36.6 nM	< 50%		
O=C(CCN1CCN(c2ccccc2)CC1)N1CCN(c2cccc(Cl)c2)CC1	1070 nM			< 50%	
O=C(CCN1CCN(Cc2ccccc2)CC1)N1CCN(c2cccc(Cl)c2)CC1	101 nM	54.7 nM			
O=C(CCN1CCN(c2ccccc2)CC1)N1CCN(c2ccccc2)CC1	272 nM	26.2 nM			8.11
O=C(CCN1CCN(c2cccc(Cl)c2)CC1)N1CCN(c2cccc(Cl)c2)CC1	142 nM	2760 nM			
O=C(CCN1CCN(Cc2ccccc2)CC1)N1CCN(c2ccccn2)CC1		29.5 nM	< 50%		
CCOc1ccccc1N1CCN(CCC(=O)N2CCN(c3cccc(Cl)c3)CC2)CC1	15.2 nM	119 nM			
O=C(CCN1CCN(Cc2ccccc2)CC1)N1CCN(c2ccccc2)CC1		52 nM	< 50%		8.55
O=C(CCCCN1CCN(c2ccccc2)CC1)N1CCN(c2ccccc2)CC1	350 nM	197 nM			
COc1ccc(N2CCN(C(=O)CCN3CCN(Cc4ccccc4)CC3)CC2)cc1			< 50%	< 50%	
O=C(CCN1CCN(c2ccc(Cl)cc2)CC1)N1CCN(c2ccccc2)CC1	1680 nM	462 nM			
O=C(CCN1CCN(c2ccc(Cl)cc2)CC1)N1CCN(c2cccc(Cl)c2)CC1	302 nM	2370 nM			
COc1ccccc1N1CCN(C(=O)CCN2CCN(Cc3ccccc3)CC2)CC1		24.2 nM	< 50%		
